Data published in US11578084B2, “Condensed ring compounds having dopamine D3 receptor antagonistic effect” (Shionogi & Co., Ltd., priority 2018, dated 2023).
pKi: −log10 of the molar value. Read-outs that look alike come from different tables or passages of the source.

Legend:
[1] = target: human recombinant dopamine D2 receptor (Homo sapiens (Human), UniProt P14416); assay: Test of binding inhibition for dopamine D2 receptor ([3H]-Methylspiperone SPA); settings: Jump-In HEK cell membranes, read-out: hD2_Ki
human recombinant dopamine D2 receptor, sequence (P14416 whole entry): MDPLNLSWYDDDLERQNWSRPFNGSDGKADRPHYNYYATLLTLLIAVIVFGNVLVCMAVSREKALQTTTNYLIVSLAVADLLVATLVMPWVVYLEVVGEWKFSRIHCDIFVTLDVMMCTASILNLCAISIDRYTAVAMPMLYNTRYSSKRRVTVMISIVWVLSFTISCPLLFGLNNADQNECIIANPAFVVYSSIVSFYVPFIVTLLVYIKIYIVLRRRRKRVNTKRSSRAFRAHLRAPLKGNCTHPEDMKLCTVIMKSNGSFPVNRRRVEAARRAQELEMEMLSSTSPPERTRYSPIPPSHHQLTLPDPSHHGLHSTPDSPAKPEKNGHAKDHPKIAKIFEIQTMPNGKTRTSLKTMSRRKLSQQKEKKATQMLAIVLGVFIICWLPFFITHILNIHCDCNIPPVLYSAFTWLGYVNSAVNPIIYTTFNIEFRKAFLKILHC
Summary of the method: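 Scintillation proximity competition binding of [3H]-Methylspiperone to Jump-In HEK membranes expressing human D2 (2 μg protein/well) on WGA SPA beads (0.2 mg/well), 120 min at 25° C.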

[2] = target: human recombinant dopamine D3 receptor (Homo sapiens (Human), UniProt P35462); assay: Test of binding inhibition for dopamine D3 receptor ([3H]-Methylspiperone SPA); settings: Jump-In HEK cell membranes, 2 nM [3H]-Methylspiperone, 120 min at 25° C.; read-out: hD3_Ki
human recombinant dopamine D3 receptor, sequence (P35462 whole entry): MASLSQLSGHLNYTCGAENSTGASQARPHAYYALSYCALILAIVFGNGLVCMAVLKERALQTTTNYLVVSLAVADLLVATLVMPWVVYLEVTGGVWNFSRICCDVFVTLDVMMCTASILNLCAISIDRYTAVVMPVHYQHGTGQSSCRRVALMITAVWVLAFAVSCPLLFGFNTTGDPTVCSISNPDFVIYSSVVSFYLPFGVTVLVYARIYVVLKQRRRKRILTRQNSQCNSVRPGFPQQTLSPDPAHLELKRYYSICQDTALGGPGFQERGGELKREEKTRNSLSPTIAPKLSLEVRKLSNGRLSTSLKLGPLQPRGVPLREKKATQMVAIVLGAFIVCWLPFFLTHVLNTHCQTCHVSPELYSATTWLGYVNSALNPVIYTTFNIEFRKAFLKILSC
Summary of the method: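 SPA radioligand binding on Jump-In HEK membranes expressing human D3 receptor (4 µg/well) with 2 nM [3H]-methylspiperone (final), incubated 120 min at 25 °C. Non-specific binding defined with 10 µM butaclamol. Percent inhibition computed against total and non-specific binding; Ki from dose-response curves.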

hERG channel (IKr) = hERG channel (IKr) (Homo sapiens (Human), UniProt Q12809); assay: hERG test (whole cell patch clamp, IKr); format: cell-based; settings: human, CHO cells expressing hERG channel, pH 7.4, 3 μM, tail peak current
hERG channel (IKr), sequence (Q12809 whole entry): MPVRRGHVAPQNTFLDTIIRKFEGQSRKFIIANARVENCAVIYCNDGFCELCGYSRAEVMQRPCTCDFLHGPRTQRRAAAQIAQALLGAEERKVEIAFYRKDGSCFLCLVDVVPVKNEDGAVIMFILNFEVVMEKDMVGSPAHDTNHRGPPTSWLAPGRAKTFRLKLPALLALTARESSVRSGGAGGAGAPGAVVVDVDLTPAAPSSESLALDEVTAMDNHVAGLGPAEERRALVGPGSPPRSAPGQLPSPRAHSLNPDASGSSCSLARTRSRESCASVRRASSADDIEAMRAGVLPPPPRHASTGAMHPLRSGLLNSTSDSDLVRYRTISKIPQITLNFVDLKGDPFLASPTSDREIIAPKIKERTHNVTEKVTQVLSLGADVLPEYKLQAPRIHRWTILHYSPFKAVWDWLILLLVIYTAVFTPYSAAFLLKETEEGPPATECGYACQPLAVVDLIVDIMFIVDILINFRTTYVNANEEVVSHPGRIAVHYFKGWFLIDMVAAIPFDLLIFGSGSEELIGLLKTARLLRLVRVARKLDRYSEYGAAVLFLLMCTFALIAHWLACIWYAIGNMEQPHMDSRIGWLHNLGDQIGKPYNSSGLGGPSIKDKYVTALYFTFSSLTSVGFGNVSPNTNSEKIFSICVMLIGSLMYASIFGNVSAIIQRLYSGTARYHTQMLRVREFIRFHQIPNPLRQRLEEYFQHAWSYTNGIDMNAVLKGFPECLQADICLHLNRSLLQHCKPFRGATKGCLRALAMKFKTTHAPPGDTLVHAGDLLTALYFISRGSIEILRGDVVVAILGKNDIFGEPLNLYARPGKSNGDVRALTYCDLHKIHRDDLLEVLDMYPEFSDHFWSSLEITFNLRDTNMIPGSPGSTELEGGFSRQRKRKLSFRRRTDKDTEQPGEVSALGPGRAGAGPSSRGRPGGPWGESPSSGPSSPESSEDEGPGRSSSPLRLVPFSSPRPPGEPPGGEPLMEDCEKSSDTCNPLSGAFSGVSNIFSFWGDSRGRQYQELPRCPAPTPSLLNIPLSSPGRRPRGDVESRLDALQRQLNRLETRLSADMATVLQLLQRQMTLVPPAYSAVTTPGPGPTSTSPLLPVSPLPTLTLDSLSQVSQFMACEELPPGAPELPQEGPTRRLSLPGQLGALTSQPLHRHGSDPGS

[3] = target: human MDR1-expressing cells (Homo sapiens (Human), UniProt P08183); assay: P-gp substrate test (Transwell, MDR1-expressing cells vs parent cells); format: in vitro ADME; settings: efflux ratio of MDR1-expressing cells compared with parent cells
human MDR1-expressing cells, sequence (P08183 whole entry): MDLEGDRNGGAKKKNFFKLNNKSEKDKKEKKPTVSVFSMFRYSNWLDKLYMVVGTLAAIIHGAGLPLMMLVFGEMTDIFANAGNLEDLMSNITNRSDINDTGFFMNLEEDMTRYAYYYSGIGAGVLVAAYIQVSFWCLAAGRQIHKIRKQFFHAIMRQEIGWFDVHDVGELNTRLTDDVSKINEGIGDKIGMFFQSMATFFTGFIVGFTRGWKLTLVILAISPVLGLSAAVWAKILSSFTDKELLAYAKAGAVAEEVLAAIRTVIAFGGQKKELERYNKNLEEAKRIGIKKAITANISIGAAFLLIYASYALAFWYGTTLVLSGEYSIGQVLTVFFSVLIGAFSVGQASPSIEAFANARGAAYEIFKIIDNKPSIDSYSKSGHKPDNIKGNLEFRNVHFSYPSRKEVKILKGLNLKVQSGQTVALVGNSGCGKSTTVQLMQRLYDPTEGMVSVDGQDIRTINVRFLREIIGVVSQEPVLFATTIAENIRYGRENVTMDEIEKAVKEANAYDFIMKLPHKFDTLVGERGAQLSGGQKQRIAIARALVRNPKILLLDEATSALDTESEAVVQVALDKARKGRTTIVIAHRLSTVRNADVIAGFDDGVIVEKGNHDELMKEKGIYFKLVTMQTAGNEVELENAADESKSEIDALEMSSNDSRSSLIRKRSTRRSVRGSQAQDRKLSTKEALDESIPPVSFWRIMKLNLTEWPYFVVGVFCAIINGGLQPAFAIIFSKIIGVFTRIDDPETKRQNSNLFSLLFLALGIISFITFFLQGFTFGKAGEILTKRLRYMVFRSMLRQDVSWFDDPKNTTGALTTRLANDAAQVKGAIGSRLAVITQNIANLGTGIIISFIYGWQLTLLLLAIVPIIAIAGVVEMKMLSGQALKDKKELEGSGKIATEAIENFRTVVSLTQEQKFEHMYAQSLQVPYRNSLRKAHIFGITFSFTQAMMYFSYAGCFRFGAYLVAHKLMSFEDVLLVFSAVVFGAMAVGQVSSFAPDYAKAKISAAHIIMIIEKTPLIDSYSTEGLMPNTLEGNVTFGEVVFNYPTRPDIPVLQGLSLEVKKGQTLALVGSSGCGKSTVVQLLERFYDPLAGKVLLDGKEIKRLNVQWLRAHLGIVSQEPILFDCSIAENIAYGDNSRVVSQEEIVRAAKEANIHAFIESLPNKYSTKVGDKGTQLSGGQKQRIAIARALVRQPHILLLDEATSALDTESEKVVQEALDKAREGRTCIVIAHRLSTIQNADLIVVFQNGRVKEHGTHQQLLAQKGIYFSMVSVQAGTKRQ
Procedure: Test Example 14: P-Gp Substrate Test The compound of the present invention was added to one side of Transwell (registered trademark, CORNING) where human MDR1-expressing cells or parent cells have been monolayer-cultured. The cells were reacted for a constant time. The membrane permeability coefficients from the apical side toward the basolateral side (A→B) and from the basolateral side toward the apical side (B→A) were calculated for the MDR1-expressing cells or the parent cells, and the efflux ratio (ER; ratio of the membrane permeability coefficients of B→A and A→B) values of the MDR1-expressing cells and the parent cells were calculated. The efflux ratio (ER values) of the MDR1-expressing cells and the parent cells were compared to confirm whether or not the compound of the present invention would be a P-gp substrate.

[4] = target: human ether-a-go-go related gene (hERG) channel (Homo sapiens (Human), UniProt Q12809); assay: hERG test (whole cell patch clamp, IKr); format: cell-based; settings: 3 μM, CHO cells expressing hERG, tail peak current
human ether-a-go-go related gene (hERG) channel, sequence (Q12809 whole entry): as the sequence (Q12809 whole entry) above

[5] = Solubility test (1% DMSO addition, JP-1 fluid or JP-2 fluid); format: physicochemical; settings: 25 °C, kinetic from dmso stock
Procedure: Test Example 11: Solubility Test The solubility of the compound of the present invention was determined under 1% DMSO addition conditions. A 10 mmol/L solution of the compound was prepared with DMSO. 2 μL of the solution of the compound of the present invention was respectively added to 198 μL of JP-1 fluid or JP-2 fluid, or 6 μL of the solution of the compound of the present invention was respectively added to 594 μL of JP-1 fluid or JP-2 fluid. The mixture was left standing for 16 hours at 25° C. (condition 1) or shaking at room temperature for 3 hours (condition 2), and the mixture was vacuum-filtered. The filtrates were diluted 10- or 100-fold with methanol/water=1/[…]) or acetonitrile/methanol/water=1/1/[…]/V), and concentrations in the filtrates were measured by the absolute calibration curve method using LC/MS or solid-phase extraction (SPE)/MS. The dilution rate or dilution solvent was changed as necessary. The composition of the JP-1 fluid was as below. Water was added to 2.0 g of sodium chloride and 7.0 mL of hydrochloric acid to reach 1000 mL. The composition of the JP-2 fluid was as below. Composition 1. 3.40 g of potassium dihydrogen phosphate and 3.55 g of anhydrous disodium hydrogen phosphate were dissolved in water to reach 1000 mL. Composition 2. 1 volume of water was added to 1 volume of the solution in which 3.40 g of potassium dihydrogen phosphate and 3.55 g of anhydrous disodium hydrogen phosphate were dissolved in water to reach 1000 mL.

[6] = 1.2 nM [3H]-Methylspiperone, 120 min at 25° C.
[7] = pH 1.2, simulated gastric fluid, JP-1 fluid, read-out: Solubility JP-1
[8] = pH 6.8, aqueous buffer, JP-2 fluid, read-out: Solubility JP-2

Compound	pKi [1, 6]	pKi [2]	inhibition at 3 µM (hERG channel (IKr))	P-gp ER ratio [3]	hERG inhibition(%) at 3 μM [4]	pKi ([1]; [3H]-Methylspiperone 1.2 nM)	solubility [5, 7]	solubility [5, 8]
Cn1ncc(CC(=O)N[C@H]2CC[C@H](CCN3CCc4sc(OCC(C)(F)F)nc4C3)CC2)n1 [Example I-005]	6.14	9.20	15.3%	1.5	–	–	–	–
CC(Oc1nc2c(s1)CCN(CC[C@H]1CC[C@H](NC(=O)c3cccc4nn(C)cc34)CC1)CC2)C(F)F (single isomer, unassigned) [Example I-119]	5.92	9.96	–	–	23.1%	–	–	–
Cc1ncc(OCC(=O)NC23CCC(CCN4CCc5nc(OCC(F)(F)F)sc5CC4)(CC2)OC3)cn1 [II-12]	–	9.31	–	–	–	5.82	> 50 µM	> 50 µM
Cn1ncc(CC(=O)N[C@H]2CC[C@](F)(CCN3CCc4nc(OCC(C)(F)F)sc4CC3)CC2)n1 [I′-39]	–	9.31	17.3%	1.9	–	6.02	–	–
Cn1cc2c(C(=O)NC34CCC(CCN5CCc6nc(OCC(F)(F)F)sc6CC5)(CC3)OC4)cccc2n1 [II-11]	–	9.64	–	–	–	< 5.64	> 50 µM	> 50 µM
Cc1ncc(OCC(=O)NC23CCC(CCN4CCc5nc(OCC(F)(F)F)sc5CC4)(CC2)CC3)cn1 [II-9]	–	9.92	–	–	–	6.02	> 50 µM	> 50 µM
Cn1cc2c(C(=O)NC34CCC(CCN5CCc6nc(OCC(F)(F)F)sc6CC5)(CC3)CC4)cccc2n1 [II-8]	–	10.08	–	–	–	5.80	> 50 µM	> 50 µM
Cn1ncc(CC(=O)N[C@H]2CC[C@](F)(CCN3CCc4ccc(OCC(F)F)nc4CC3)CC2)n1 [Example I-031]	6.10	9.72	23.8%	1.5	–	–	–	–
